Measured values from ChEMBL document CHEMBL5126588, “Discovery of non-substrate, environmentally sensitive turn-on fluorescent probes for imaging HDAC8 in tumor cells and tissue slices” (Bioorg Med Chem, 2022).
pIC50, pKd: −log10 of the molar value. Active and inactive are the calls of the source. The rule behind the calls is not given here.

Tests used:
[1] = tested on: SH-SY5Y; test: Antiproliferative activity against human SH-SY5Y cells by MTT assay; format: functional, cell-based
[2] = biological target: T1, Protein deacetylase HDAC6 (Homo sapiens, UniProt Q9UBN7); test: Binding affinity to HDAC6 (unknown origin) by biolayer interferometry assay
T1 sequence (Q9UBN7 whole entry): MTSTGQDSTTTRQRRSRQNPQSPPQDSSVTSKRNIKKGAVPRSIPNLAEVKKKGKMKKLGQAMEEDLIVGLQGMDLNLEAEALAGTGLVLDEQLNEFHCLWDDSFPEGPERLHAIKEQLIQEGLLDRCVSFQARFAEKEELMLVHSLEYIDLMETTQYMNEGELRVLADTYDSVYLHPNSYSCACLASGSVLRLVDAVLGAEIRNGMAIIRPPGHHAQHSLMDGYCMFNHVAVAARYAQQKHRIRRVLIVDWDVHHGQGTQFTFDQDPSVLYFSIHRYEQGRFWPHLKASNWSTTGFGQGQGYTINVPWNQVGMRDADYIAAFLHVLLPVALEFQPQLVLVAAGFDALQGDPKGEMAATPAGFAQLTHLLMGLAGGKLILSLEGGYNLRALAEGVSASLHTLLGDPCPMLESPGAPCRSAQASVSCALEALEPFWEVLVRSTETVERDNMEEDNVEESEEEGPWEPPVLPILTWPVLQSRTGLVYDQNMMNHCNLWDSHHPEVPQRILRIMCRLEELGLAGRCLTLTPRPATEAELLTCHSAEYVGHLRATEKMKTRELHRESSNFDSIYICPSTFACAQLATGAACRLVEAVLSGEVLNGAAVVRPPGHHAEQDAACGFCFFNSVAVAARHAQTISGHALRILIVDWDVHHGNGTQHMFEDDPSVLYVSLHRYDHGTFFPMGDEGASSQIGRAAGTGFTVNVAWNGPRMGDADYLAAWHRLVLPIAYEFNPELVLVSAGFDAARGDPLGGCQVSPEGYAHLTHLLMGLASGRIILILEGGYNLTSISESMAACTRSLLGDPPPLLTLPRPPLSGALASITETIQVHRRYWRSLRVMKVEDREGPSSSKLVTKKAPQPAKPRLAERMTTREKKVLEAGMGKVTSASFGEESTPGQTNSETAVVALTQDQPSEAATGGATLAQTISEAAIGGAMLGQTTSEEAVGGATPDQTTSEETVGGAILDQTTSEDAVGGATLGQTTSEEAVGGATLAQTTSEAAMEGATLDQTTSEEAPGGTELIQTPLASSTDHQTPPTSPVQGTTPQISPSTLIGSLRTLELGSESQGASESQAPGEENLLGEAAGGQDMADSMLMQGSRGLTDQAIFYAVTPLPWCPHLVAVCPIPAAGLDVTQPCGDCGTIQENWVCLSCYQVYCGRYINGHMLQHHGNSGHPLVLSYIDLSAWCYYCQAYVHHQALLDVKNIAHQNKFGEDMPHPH

[3] = tested on: MDA-MB-231; test: Antiproliferative activity against human MDA-MB-231 cells by MTT assay; format: functional, cell-based
[4] = biological target: T2, Histone deacetylase 8 (Homo sapiens, UniProt Q9BY41); test: Binding affinity to HDAC8 (unknown origin) by biolayer interferometry assay
T2 sequence (Q9BY41 whole entry): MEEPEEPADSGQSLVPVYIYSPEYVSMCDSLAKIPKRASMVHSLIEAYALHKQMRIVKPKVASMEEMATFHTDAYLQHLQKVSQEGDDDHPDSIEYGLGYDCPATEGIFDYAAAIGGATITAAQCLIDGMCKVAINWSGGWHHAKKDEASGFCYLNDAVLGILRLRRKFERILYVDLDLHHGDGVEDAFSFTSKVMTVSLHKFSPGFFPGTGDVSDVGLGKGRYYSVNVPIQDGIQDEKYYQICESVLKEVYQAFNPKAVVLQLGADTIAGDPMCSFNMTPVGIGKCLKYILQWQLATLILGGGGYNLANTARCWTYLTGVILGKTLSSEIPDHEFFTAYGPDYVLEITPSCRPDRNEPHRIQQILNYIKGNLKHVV

[5] = biological target: Histone deacetylase 1 (Homo sapiens, UniProt Q13547); test: Binding affinity to HDAC1 (unknown origin) by biolayer interferometry assay
Chain of Histone deacetylase 1 (Q13547 whole entry): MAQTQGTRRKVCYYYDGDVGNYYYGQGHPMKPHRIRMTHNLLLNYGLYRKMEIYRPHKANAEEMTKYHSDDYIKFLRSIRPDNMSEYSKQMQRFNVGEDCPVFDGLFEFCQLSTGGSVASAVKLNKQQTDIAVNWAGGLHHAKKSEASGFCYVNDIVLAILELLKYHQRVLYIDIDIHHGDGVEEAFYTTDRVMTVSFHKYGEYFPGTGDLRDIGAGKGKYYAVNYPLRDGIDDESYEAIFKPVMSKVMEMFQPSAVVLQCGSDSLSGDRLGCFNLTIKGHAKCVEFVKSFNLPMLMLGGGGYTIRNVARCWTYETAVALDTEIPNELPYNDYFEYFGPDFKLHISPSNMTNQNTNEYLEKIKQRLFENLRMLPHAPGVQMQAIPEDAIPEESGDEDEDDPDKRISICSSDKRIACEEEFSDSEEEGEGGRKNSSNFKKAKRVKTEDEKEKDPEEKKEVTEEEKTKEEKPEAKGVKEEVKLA

[6] = biological target: T3, Histone deacetylase 8 (Homo sapiens) (UniProt Q9BY41); test: Binding affinity to HDAC8 in human SH-SY5Y cells assessed as increase in fluorescence intensity at 5 to 10 uM incubated for 30 mins by flow cytometry analysis; format: cell-based; details: dose 5-10 µM
T3 sequence (whole entry): T2 sequence (Q9BY41 whole entry)

[7] = tested on: MDA-MB-231; test: Antiproliferative activity against human MDA-MB-231 cells within 20 uM by MTT assay; format: toxicity, cell-based; details: mda-mb-231, 20 µM
[8] = tested on: SH-SY5Y; test: Antiproliferative activity against human SH-SY5Y cells within 20 uM by MTT assay; format: toxicity, cell-based
[9] = biological target: T3, Histone deacetylase 8 (Homo sapiens); test: Binding affinity to HDAC8 in human SH-SY5Y cells assessed as increase in fluorescence intensity at 10 uM after 30 mins by confocal fluorescence microscopic analysis; format: cell-based
[10] = biological target: T3, Histone deacetylase 8 (Homo sapiens); test: Binding affinity to HDAC8 in human SH-SY5Y cells xenografted with BALB/c mouse assessed as increase in fluorescence intensity in tumor tissue at 20 uM after 30 mins by fluorescence imaging analysis

| SMILES | pIC50 [1] | pKd [2] | pIC50 [3] | pKd [4] | pKd [5] | Activity [6] | Activity [7] | Activity [8] | Activity [9] | Activity [10] |
| --- | --- | --- | --- | --- | --- | --- | --- | --- | --- | --- |
| COc1ccc(Cn2ccc3ccc(C(=O)NO)cc32)cc1C(=O)NCCCNc1ccc(S(=O)(=O)N(C)C)c2nonc12 | 5.07 | 4.70 | 4.74 | 5.45 | 4.69 | – | – | – | – | – |
| COc1ccc(Cn2ccc3ccc(C(=O)NO)cc32)cc1C(=O)NCCNc1ccc(S(=O)(=O)N(C)C)c2nonc12 | 5.00 | 4.53 | 4.79 | 5.27 | 4.79 | – | – | – | – | – |
| COc1ccc(Cn2ccc3ccc(C(=O)NO)cc32)cc1 | 5.62 | – | 4.79 | – | – | – | – | – | – | – |
| COc1ccc(Cn2ccc3ccc(C(=O)NO)cc32)cc1C(=O)NCCCCNc1ccc(S(=O)(=O)N(C)C)c2nonc12 | 5.07 | 3.86 | 4.48 | 5.05 | 4.10 | Active | Non-Toxic | Non-Toxic | Active | Active |
